According to article PMC8684484, “The assessment of Pseudomonas aeruginosa lectin LecA binding characteristics of divalent galactosides using multiple techniques” (Glycobiology, 2021):

Assays:
[1] = molecular target: T1, Maclura pomifera Lectin (MPL) (Maclura pomifera, UniProt P18674); assay: ACE selectivity experiment with MPL as binding competitor; details: mixture of LecA and MPL; 1 mM of 1 or 20 μM of 2 in BGE
T1 construct: purchased Vector Laboratories (San Francisco, CA, USA)
Experimental: A mixture of LecA and MPL was analyzed by ACE, and affinity studies were carried out by adding the carbohydrates 1 and 2 to the BGE.
CE analyses were carried out using an Agilent 7100 instrument (Agilent technologies, USA). Bare fused-silica capillaries, with a 100 μm internal diameter, 365 μm outer diameter and a 50 cm total length, were from Biotaq (Gaithersburg, MD, USA). The detection window of the capillary was created at 10 cm from the outlet of the capillary. Hydrodynamic injections were performed at 17 mbar for 4 s, by injecting LecA or MPL (10 μM). The separation voltage was set at −10 kV and the caplillary temperature was maintained at 25°C during analysis. Ultraviolet detection was performed from 190 nm to 280 nm, but data recorded at 214 nm were used in this study. The BGE for the analysis of the lectins was potassium phosphate prepared by dissolving the appropriate amount of compounds in water and adjusting the pH with a sodium hydroxide solution. Capillaries were coated with Ultra Trol LN. Stable currents of 45 μA were observed during the affinity measurements with optimum buffer conditions (25 mM KH2PO4 at pH 7).
In order to study the affinity of LecA toward inhibitors, LecA was injected and carbohydrate inhibitors were added to the BGEs. BGEs were prepared containing 1 mM of compound 1, 20 μM of compound 2, or without carbohydrate. […]

LecA [2] = molecular target: T2, LecA (Pseudomonas aeruginosa, UniProt Q05097); assay: Native ESI-MS occupancy of the LecA tetramer; type: binding; details: ligand 600 μM, LecA 10 μM; estimated from MS intensities
T2 construct: purchased Sigma–Aldrich (Steinheim, Germany)
T2 sequence (Q05097 2-122): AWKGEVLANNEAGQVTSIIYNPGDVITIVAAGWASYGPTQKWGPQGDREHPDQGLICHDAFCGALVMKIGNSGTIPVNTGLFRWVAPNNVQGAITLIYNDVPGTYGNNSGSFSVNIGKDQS
Experimental: At the high concentration of monovalent compound 1 (600 μM) incubated with LecA (10 μM), a varying number of binding pockets of the tetrameric lectin were occupied by the monovalent ligand indicated by four different peaks in close proximity (Figure 8b). At these concentrations, an estimated number of copies of LecA of 8% remains fully unoccupied, 18% has one pocket occupied, 26% has two pockets occupied, 27% has three pockets occupied and 21% is fully occupied. We used the intensity values as determined by mass spectrometry as a proxy of their abundances in solution to calculate the occupancy values, for which previously it was shown that there is good correlation ([Seo et al. 2016]).
At a low (substoichiometric) concentration of divalent compound 2 (2 μM), 3 m/z peaks were observed that correspond to unbound LecA (estimated 6%), LecA bound to one compound 2 (estimated 39%) and LecA bound to two of the divalent ligand 2 (estimated 55%) (Figure 8c). […] As no peaks were detected corresponding to a single or triple binding pockets of the tetrametric lectin, excellent support is provided for the effective divalent binding of our molecule at reasonable concentrations.
To investigate the interaction between LecA and compounds 1 and 2, we incubated these compounds with LecA and transferred the produced complex into a 150 mM ammonium acetate solution (pH 7.5) by applying 10 μM of the protein ligand complex in a ratio of 1:1 on a pre-equilibrated 6-kDa Micro Bio-Spin column (Bio-Rad). The protein was eluted by centrifugation at 1,000 × g and 4°C. MS measurements were performed in positive ion mode using an Electrospray Ionization Time-of-Flight instrument (LC-T; Micromass, Manchester, UK) equipped with a Z-spray nanoelectrospray ionization source. Samples were sprayed from in-house prepared borosilicate glass capillaries (Kwik-Fil; World Precision Instruments, Sarasota, FL) prepared on a P-97 puller (Sutter Instruments, Novato, CA, USA) and coated with a thin layer of gold by using an Edwards Scan coat six Pirani 501 sputter coater (Edwards Laboratories, Milpitas, CA, USA). Instrument settings were adjusted for optimal transmission of high mass ions. A capillary voltage of 1300 V was used, in combination with a sampling cone voltage of 60 V. The source backing pressure was elevated to approximately 6.7 mbar in order to promote collisional cooling. All TOF data were mass calibrated by using an aqueous solution of cesium iodide (25 mg·mL^−1) and interpreted manually using MassLynx software (Waters, version 4.1).

LecA [3] = molecular target: T2, LecA; assay: Affinity capillary electrophoresis (ACE), direct binding, μeff shift of LecA with carbohydrate in BGE
Experimental: For affinity studies, two different LecA ligands were used. The first was the carboxylated galactoside (1). This was used as the reference monovalent ligand and its negatively charged carboxylate increases the chances of a protein shift in CE where charges are the important mobility determinant. Furthermore we used the bivalent carbohydrate (2), previously optimized for bivalent binding ([Yu et al. 2019b]). These glycoligands were added to the optimized CE background electrolyte (BGE) and the protein LecA was injected. For KD determination the BGE containing increasing concentrations of carbohydrate 1 or carbohydrate 2 were prepared and used for the analysis of LecA (10 μM). […] For each carbohydrate and each concentration, the difference of the measured μeff of LecA with the μeff acquired without carbohydrate in the BGE, was determined. […]
CE analyses were carried out using an Agilent 7100 instrument (Agilent technologies, USA). […] Ultraviolet detection was performed from 190 nm to 280 nm, but data recorded at 214 nm were used in this study. […]
BGEs containing increasing concentrations of compound 1 and/or compound 2 were prepared at the pH for which μeff shifts were observed and used for KD determination. For each carbohydrate and each studied concentration, the difference of the measured μeff of LecA with the μeff obtained without carbohydrate was determined. […]

LecA [4] = molecular target: T2, LecA; assay: Fluorescence-based thermal shift assay (TSA), Sypro orange; type: binding; details: ligand 500 μM; for Tm of LecA: no ligand 71.7
Experimental: As ligand binding is known to shift the melting point of proteins in a ligand concentration dependent manner, we performed the TSA experiments with two different concentrations of LecA (0.5 and 1 mg/mL) containing the fluorescent dye sypro orange. […] Therefore, we selected a fixed concentration of 1 mg/mL for the subsequent experiments. […] Divalent 2 stabilizes LecA by more than 11°C at a concentration of 20 μM (Figure 7).
TSA was performed using a standard real-time PCR instrument. To monitor protein unfolding, the fluorescent dye Sypro orange was used. Sypro orange is an environmentally sensitive dye (Thermo Fischer 5000x in DMSO). The unfolding process exposes the hydrophobic region of proteins and results in a large increase in fluorescence, which is used to monitor the protein-unfolding transition ([Lo et al. 2004]). The TSA was performed with a BioRad CFX96 real-time PCR machine, and analysis for binding induced shifts in thermal transition was performed with Bio-Rad CFX Manager 3.1 Software provided by the manufacturer (BioRad, Hercules, CA, USA).
Galactose based inhibitors specifically bind to the binding pocket of the lectin. Ligands could stabilize LecA (0.5 and 1 mg/mL) upon binding and therefore the protein Tm might increase. The shift in Tm with an addition of the ligand (ΔTm) serves as a qualitative measure of protein stability and allows to determine whether a protein–ligand binding event occurs. We here show the effect of different carbohydrates on the thermal denaturation of LecA. Sypro orange conc, used: 320× from commercial 5000×).

MPL = molecular target: T3, MPL (Maclura pomifera, UniProt P18674); assay: Bio-layer interferometry (BLI), biotinylated ligand on streptavidin sensor; type: binding; details: immobilized ligand
T3 construct: purchased Vector Laboratories (San Francisco, CA, USA)
T3 sequence (P18674 whole entry): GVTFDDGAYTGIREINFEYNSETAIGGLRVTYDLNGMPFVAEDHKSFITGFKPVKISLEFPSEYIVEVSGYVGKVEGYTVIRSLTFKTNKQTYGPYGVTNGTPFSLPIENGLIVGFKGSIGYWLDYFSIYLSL
T3 sequence (P18676 whole entry partner): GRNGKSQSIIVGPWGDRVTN
Experimental: (§1) The biotinylated galactoside 3 (Figure 5) was immobilized on a streptavidin coated sensor. […] This is likely due to the well-known low affinity of monovalent ligands for most lectins even though the presentation of the ligand on the chip was also multivalent, but apparently not matching the distances between binding sites. Next, the binding properties of the divalent biotinylated 4 with the mentioned lectins were evaluated. […] Indeed, during the dissociation step, the signal only partially decreases down to the baseline and this lack of full dissociation indicates high affinity. Using this setup, kinetic parameters of the interaction were determined for the divalent galactoside to evaluate whether the divalent binding mode of this ligand influences the lectin–ligand kinetics. By fitting the sensorgrams with a global model ([…]), association (ka or kon) and dissociation (kd or koff) constants were determined and the KD was calculated from the ratio of kd over the ka while the residence time (τ) was derived from 1/kd. […] The same was true for compound 4 and lectins MPL and JIL.
(§2) BLI measurements were carried out using an Octet RED 384 instrument (ForteBio). Biosensors were transferred into fresh assay buffer for 180 s to collect a baseline read. Compound 3 and compound 4 were immobilized on streptavidin (SA)-functionalized biosensors to maximum levels by incubation for 900 s at 1 μM ([Guo et al. 2018]). For each set of biosensors, an 180 s baseline in buffer alone was acquired followed by an 1800 s association step and an 1800 s dissociation step. All experiments were carried out using PBS (10 mM phosphate, 150 mM NaCl, pH 7.4) as the assay buffer at 298 K. Data were processed and analyzed and KD values were determined using the global fitting procedures as implemented in Octet® system Data Analysis Software 9.0.0.48 (Pall ForteBio LLC, Menlo Park, CA, USA). Kinetic responses were fitted to a 1-site binding model to obtain values for association (kon) and dissociation (koff) rate constants. The KD derived from kinetic fitting was calculated as koff/kon.

LecA [5] = molecular target: T2, LecA; assay: as above; type: binding; details: immobilized ligand
Experimental: as §1, §2

JIL (Jacalin lectin) = molecular target: T4, JIL (Jacalin lectin) (Artocarpus integer, UniProt P18670); assay: as above; type: binding, Jackfruits; details: immobilized ligand
T4 construct: purchased Sigma–Aldrich (Steinheim, Germany)
T4 sequence (P18670 whole entry): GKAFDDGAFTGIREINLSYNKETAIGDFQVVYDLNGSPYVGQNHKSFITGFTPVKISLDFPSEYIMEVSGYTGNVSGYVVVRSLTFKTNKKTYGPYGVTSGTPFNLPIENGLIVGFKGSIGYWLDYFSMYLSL
T4 sequence (P18673 whole entry, further chain): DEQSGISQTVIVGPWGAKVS
Experimental: as §1
BLI measurements were carried out using an Octet RED 384 instrument (ForteBio). Biosensors were transferred into fresh assay buffer for 180 s to collect a baseline read. […] The KD derived from kinetic fitting was calculated as koff/kon.

T1 sequence (P18674 whole entry): as the sequence (P18674 whole entry) above

SMILES	μeff shift of MPL with carbohydrate in BGE [1]	LecA fully occupied (LecA [2])	LecA fully unoccupied (LecA [2])	LecA with one pocket occupied (LecA [2])	LecA with three pockets occupied (LecA [2])	LecA with two pockets occupied (LecA [2])	Kd (LecA [3])	μeff shift of LecA with carbohydrate in BGE (LecA [3]; mixture of LecA and MPL, 1 mM of 1 or 20 μM of 2 in BGE)	Tm of LecA (LecA [4])	BLI signal (MPL; MPL at 1 μM)	BLI association and dissociation (MPL; MPL up to 10 μM)	BLI signal (LecA [5]; LecA at 1 μM)	BLI association and dissociation (LecA [5]; LecA up to 10 μM)	BLI signal (JIL (Jacalin lectin); JIL at 1 μM)	BLI association and dissociation (JIL (Jacalin lectin); JIL up to 10 μM)	stabilization of LecA (ΔTm) (LecA [4]; LecA 1 mg/mL)
O=C(O)CO[C@@H]1O[C@H](CO)[C@H](O)[C@H](O)[C@H]1O [Compound 1]	sizeable shift	21%	8%	18%	27%	26%	27 µM	sizeable shift	74.0 °C	–	–	–	–	–	–	–
O=C(CCCC[C@@H]1SC[C@@H]2NC(=O)N[C@@H]21)NCCCCCC(=O)NCCCO[C@@H]1O[C@H](CO)[C@H](O)[C@H](O)[C@H]1O [Compound 3]	–	–	–	–	–	–	–	–	–	no detectable signal	no significant association and dissociation phenomena	no detectable signal	no significant association and dissociation phenomena	no detectable signal	no significant association and dissociation phenomena	–
OC[C@H]1OC(O)[C@@H](O)[C@@H](O)[C@@H]1O (stereo partly drawn) [D-Mannose, D-mannose]	–	–	–	–	–	–	–	–	71.7 °C	–	–	–	–	–	–	did not stabilize LecA at all
